PMC7736581, “Activation of the IRE1 RNase through remodeling of the kinase front pocket by ATP-competitive ligands” (Nature Communications, 2020)

Key:
Assay in all cases: biochemical
Parameters in all cases: Invitrogen kinase panel: Z'Lyte activity (ATP at Km) or LanthaScreen competitive ATP-site binding, percent inhibition
AKT1 = AKT1 (Homo sapiens, UniProt P31749)
CSF1R = CSF1R (Homo sapiens, UniProt P07333)
CaMKII_beta = target: T1, CaMKII_beta (Homo sapiens, UniProt Q13554)
T1 construct: gene CAMK2B

CaMKI_delta = target: T2, CaMKI_delta (Homo sapiens, UniProt Q8IU85)
T2 construct: gene CAMK1D

DAPK1 = DAPK1 (Homo sapiens, UniProt P53355)
DCAMKL2 = target: T3, DCAMKL2 (Homo sapiens, UniProt Q8N568)
T3 construct: gene DCLK2

GSK3_alpha = target: T4, GSK3_alpha (Homo sapiens, UniProt P49840)
T4 construct: gene GSK3A

IRAK1 = IRAK1 (Homo sapiens, UniProt P51617)
IRR = target: T5, IRR (Homo sapiens, UniProt P14616)
T5 construct: gene INSRR

MAPKAPK3 = MAPKAPK3 (Homo sapiens, UniProt Q16644)
MARK3 = MARK3 (Homo sapiens, UniProt P27448)
MELK = MELK (Homo sapiens, UniProt Q14680)
MKNK1 = MKNK1 (Homo sapiens, UniProt Q9BUB5)
Mer = target: T6, Mer (Homo sapiens, UniProt Q12866)
T6 construct: gene MERTK

NEK6 = NEK6 (Homo sapiens, UniProt Q9HC98)
PASK = PASK (Homo sapiens, UniProt Q96RG2)
PLK2 = PLK2 (Homo sapiens, UniProt Q9NYY3)
Ros = target: T7, Ros (Homo sapiens, UniProt P08922)
T7 construct: gene ROS1

Rsk3 = target: T8, Rsk3 (Homo sapiens, UniProt Q15349)
T8 construct: gene RPS6KA2

TTK = TTK (Homo sapiens, UniProt P33981)
TrkB = target: T9, TrkB (Homo sapiens, UniProt Q16620)
T9 construct: gene NTRK2

YSK1 = target: T10, YSK1 (Homo sapiens, UniProt O00506)
T10 construct: gene STK25

ZAP-70 = target: T11, ZAP-70 (Homo sapiens, UniProt P43403)
T11 construct: gene ZAP70

eEF-2K = target: T12, eEF-2K (Homo sapiens, UniProt O00418)
T12 construct: gene EEF2K

mTOR = mTOR (Homo sapiens, UniProt P42345)

T11 sequence (P43403 whole entry): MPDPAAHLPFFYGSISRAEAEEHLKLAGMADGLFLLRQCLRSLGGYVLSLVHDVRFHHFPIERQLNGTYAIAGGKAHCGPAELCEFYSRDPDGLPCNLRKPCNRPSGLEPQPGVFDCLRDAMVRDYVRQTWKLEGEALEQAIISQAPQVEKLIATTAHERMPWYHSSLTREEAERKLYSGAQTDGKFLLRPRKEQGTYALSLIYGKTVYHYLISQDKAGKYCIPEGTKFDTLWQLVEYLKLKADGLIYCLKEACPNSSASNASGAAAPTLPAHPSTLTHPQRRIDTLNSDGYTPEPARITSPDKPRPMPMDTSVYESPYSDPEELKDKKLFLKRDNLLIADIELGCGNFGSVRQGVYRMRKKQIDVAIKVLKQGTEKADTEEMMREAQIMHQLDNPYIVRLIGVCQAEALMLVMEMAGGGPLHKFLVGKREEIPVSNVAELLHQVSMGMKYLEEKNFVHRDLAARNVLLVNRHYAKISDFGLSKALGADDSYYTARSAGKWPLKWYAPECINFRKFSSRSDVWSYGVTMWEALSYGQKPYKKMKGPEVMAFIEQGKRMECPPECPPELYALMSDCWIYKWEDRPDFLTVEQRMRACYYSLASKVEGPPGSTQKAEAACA
Chain of NEK6 (Q9HC98 whole entry): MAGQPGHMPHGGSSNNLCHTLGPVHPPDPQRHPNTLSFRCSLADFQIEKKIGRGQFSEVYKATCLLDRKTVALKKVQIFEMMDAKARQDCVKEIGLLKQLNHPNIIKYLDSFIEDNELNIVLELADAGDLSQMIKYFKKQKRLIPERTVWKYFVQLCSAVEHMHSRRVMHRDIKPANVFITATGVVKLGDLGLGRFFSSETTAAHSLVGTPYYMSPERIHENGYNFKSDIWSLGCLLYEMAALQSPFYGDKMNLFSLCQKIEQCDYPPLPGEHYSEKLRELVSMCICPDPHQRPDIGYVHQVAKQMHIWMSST
Chain of PLK2 (Q9NYY3 whole entry): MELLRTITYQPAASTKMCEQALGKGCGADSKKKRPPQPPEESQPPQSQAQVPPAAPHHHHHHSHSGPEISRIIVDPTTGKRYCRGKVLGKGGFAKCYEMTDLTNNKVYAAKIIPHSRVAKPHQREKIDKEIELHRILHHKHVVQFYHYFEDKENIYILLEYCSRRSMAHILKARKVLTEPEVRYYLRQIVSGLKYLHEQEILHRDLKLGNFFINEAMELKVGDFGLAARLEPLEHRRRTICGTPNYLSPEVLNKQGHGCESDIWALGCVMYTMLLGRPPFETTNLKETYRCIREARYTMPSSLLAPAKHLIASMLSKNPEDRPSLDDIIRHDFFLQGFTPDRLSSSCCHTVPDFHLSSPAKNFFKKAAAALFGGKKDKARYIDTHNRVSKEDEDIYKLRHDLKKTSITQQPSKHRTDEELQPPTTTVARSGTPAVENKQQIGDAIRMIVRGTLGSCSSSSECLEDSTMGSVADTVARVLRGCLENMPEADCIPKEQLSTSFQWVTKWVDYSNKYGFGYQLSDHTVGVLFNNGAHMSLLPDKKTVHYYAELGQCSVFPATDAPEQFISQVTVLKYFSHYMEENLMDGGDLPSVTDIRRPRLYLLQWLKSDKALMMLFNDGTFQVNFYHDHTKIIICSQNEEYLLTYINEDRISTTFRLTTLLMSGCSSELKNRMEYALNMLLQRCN
Chain of MKNK1 (Q9BUB5 whole entry): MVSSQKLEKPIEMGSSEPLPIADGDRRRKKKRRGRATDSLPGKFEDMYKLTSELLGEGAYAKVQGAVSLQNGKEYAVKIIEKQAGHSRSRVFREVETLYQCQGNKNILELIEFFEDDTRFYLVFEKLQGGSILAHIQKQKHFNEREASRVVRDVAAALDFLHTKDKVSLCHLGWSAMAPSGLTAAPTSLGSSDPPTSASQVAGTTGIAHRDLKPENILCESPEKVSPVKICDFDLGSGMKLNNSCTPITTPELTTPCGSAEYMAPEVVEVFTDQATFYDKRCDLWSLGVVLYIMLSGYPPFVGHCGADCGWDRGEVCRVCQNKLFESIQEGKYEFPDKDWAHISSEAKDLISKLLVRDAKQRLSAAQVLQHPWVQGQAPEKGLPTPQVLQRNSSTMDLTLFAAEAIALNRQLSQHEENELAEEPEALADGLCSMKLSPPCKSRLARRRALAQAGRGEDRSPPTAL
Chain of TTK (P33981 whole entry): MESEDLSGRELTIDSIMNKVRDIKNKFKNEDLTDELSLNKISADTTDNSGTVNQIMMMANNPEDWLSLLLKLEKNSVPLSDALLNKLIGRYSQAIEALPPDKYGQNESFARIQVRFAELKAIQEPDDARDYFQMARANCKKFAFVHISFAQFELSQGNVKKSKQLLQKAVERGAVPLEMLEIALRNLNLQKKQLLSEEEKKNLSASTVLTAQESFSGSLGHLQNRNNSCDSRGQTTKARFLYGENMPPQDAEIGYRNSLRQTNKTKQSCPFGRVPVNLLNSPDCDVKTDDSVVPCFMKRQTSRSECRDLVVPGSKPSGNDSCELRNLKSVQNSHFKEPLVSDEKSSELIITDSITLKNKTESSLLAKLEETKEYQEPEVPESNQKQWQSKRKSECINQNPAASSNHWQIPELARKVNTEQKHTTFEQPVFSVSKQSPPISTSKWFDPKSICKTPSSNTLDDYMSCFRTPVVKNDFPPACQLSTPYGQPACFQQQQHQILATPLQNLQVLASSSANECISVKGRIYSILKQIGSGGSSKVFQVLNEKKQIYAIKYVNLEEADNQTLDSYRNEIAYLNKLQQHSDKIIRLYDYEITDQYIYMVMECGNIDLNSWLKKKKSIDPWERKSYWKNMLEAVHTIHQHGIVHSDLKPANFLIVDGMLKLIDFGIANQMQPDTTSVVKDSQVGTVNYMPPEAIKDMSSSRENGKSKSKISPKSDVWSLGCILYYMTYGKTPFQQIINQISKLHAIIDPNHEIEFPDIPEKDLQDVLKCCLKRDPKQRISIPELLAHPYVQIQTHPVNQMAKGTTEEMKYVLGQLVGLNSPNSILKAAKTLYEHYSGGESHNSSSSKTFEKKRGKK
T4 sequence (P49840 whole entry): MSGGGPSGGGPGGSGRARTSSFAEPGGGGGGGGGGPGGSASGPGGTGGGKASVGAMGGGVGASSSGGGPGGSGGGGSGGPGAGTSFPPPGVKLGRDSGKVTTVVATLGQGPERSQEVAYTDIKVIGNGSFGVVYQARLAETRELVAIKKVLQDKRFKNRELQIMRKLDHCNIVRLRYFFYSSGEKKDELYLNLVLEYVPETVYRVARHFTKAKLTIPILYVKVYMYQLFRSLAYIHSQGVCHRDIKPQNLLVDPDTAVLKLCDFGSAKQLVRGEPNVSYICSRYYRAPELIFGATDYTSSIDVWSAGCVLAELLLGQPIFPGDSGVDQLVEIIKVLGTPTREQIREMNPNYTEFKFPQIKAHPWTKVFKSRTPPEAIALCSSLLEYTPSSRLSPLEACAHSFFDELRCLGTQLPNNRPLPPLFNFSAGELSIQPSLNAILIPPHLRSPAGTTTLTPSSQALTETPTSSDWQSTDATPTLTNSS
Chain of MELK (Q14680 whole entry): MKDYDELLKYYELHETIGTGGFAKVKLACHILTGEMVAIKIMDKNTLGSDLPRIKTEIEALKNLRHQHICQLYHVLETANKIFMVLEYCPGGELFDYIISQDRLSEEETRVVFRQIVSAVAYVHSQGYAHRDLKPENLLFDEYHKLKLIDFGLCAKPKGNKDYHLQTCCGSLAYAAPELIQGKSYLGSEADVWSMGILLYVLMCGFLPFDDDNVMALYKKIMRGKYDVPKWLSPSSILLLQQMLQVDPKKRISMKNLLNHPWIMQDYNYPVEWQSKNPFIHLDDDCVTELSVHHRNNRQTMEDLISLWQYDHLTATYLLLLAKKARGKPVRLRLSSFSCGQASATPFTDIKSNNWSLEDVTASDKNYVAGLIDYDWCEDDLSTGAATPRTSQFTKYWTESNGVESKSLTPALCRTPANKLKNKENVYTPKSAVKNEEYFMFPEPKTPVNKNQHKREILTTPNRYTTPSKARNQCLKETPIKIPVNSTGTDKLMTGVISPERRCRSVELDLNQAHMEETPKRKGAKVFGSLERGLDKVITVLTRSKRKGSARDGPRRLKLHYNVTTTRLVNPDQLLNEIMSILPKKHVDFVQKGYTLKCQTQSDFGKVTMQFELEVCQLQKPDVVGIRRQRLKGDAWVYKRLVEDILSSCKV
T12 sequence (O00418 whole entry): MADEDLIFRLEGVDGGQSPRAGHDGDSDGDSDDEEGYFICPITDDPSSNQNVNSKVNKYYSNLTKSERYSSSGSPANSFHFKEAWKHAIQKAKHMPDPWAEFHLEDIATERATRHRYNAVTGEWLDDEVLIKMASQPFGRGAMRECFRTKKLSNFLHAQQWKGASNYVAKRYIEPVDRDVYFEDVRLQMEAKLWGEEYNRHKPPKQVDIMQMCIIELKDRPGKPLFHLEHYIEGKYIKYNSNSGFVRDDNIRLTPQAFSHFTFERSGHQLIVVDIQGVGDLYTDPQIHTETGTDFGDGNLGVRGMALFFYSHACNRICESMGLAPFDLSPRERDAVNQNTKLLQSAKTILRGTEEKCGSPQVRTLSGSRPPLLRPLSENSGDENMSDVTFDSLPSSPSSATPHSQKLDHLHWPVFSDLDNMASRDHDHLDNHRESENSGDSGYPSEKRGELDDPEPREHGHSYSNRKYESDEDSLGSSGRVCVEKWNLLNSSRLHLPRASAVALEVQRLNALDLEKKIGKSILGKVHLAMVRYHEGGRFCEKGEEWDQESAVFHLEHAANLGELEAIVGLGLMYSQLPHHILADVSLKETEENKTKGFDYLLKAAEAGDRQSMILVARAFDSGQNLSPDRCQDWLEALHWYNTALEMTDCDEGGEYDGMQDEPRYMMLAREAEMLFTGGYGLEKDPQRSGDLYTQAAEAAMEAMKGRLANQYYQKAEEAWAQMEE

Compound	inhibition at 1 µM (AKT1)	inhibition at 1 µM (CSF1R)	inhibition at 1 µM (CaMKII_beta)	inhibition at 1 µM (CaMKI_delta)	inhibition at 1 µM (DAPK1)	inhibition at 1 µM (DCAMKL2)	inhibition at 1 µM (GSK3_alpha)	inhibition at 1 µM (IRAK1)	inhibition at 1 µM (IRR)	inhibition at 1 µM (MAPKAPK3)	inhibition at 1 µM (MARK3)	inhibition at 1 µM (MELK)	inhibition at 1 µM (MKNK1)	inhibition at 1 µM (Mer)	inhibition at 1 µM (NEK6)	inhibition at 1 µM (PASK)	inhibition at 1 µM (PLK2)	inhibition at 1 µM (Ros)	inhibition at 1 µM (Rsk3)	inhibition at 1 µM (TTK)	other results
CCOC(=O)Nc1cccc2c(Oc3ncccc3-c3ccnc(N[C@H]4CCCNC4)n3)c(C)ccc12 [G-1749]	-16.5%	7%	-2%	0%	-4%	3%	2.5%	9%	-0.5%	12.5%	8%	33%	1.5%	4.5%	2.5%	4.5%	3%	7%	10%	16%	inhibition at 1 µM (TrkB): 0.5%; inhibition at 1 µM (YSK1): 2.5%; inhibition at 1 µM (ZAP-70): 3%; inhibition at 1 µM (eEF-2K): 5%; inhibition at 1 µM (mTOR): 5%
CC#CC(=O)Nc1cccc2c(Oc3ncccc3-c3ccnc(N[C@H]4CCCNC4)n3)c(C)ccc12 [G-7658]	-13.5%	-7.5%	0.5%	0.5%	-4%	2%	10.5%	11.5%	0%	8%	8%	19.5%	-1%	4.5%	17.5%	9.5%	3%	8%	9%	11.5%	inhibition at 1 µM (TrkB): 0.5%; inhibition at 1 µM (YSK1): -3%; inhibition at 1 µM (ZAP-70): 4%; inhibition at 1 µM (eEF-2K): 5%; inhibition at 1 µM (mTOR): 7%
